Counter-ions that a name gives are not always drawn.
Key:
[1] = system: lung eosinophil accumulation; assay: Antigen-induced lung eosinophil accumulation in sensitised guinea pigs; type: in vivo, guinea pig; conditions: airstream concentration; inhaled route, 30 min aerosol before ovalbumin challenge; lavage 24 h after challenge
Procedure: (2) Antigen-induced lung eosinophil accumulation in sensitised guinea pigs.
Ovalbumin sensitised guinea pigs were dosed with mepyramine (1 mg/kg ip) to protect against anaphylactic bronchospasm. A compound of the invention was then given by the inhaled route (30 min breathing of an aerosol of the compound) immediately prior to ovalbumin challenge (30 min breathing of an aerosol generated from a 50 ug/ml solution of ovalbumin). Twenty four hours after challenge, the guinea pigs were killed and the lungs lavaged. Total and differential leucocyte counts were then obtained for the bronchoalveolar lavage fluid and the dose of test compound giving a 50% reduction in eosinophil accumulation (ED50) was determined (Sanjar et al. 1992).

[2] = target: adenosine 2a receptor (Homo sapiens, UniProt P29274); assay: Agonist activity against adenosine 2a receptor (CHO cells, cAMP/SPAP reporter); type: cell-based; conditions: CHO cells transfected with human receptor; basal cAMP via SPAP; mean of all the versions tested
Chain of adenosine 2a receptor (P29274 whole entry): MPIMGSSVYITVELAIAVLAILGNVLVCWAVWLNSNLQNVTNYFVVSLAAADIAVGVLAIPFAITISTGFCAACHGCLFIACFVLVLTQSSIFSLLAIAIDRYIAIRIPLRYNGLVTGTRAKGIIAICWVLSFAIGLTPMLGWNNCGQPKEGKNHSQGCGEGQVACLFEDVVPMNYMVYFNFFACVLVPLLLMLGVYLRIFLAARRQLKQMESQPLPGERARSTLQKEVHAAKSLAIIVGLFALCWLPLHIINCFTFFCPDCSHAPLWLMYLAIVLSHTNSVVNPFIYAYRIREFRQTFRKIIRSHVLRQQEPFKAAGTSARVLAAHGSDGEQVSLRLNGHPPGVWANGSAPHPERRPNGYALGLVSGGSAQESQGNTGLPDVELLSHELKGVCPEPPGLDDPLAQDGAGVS
Procedure: (§1) (1) Agonist activity against adenosine 2a, adenosine 1 and adenosine 3 receptor subtypes.
(§2) The effect of test compounds was determined by their effects on basal levels of cAMP (A2a) or on forskolin-enhanced cAMP (A1 and A3) as reflected by changes in levels of SPAP.

[3] = target: T1, adenosine 1 receptor (Homo sapiens, UniProt P30542); assay: Agonist activity against adenosine 1 receptor (CHO cells, forskolin-enhanced cAMP/SPAP reporter); type: cell-based; conditions: CHO cells transfected with human receptor; forskolin-enhanced cAMP via SPAP; mean of all the versions tested
T1 sequence (P30542 1-326): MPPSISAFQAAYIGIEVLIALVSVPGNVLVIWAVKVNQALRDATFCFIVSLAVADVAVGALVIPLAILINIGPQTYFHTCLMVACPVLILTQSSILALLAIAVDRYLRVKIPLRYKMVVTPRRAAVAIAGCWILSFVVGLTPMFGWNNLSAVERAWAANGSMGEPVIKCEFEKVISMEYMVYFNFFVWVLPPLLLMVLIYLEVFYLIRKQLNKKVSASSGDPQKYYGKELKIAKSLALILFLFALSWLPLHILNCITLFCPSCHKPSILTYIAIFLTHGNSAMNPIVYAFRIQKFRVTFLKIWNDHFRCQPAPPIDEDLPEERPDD
Procedure: as §1, §2

[4] = target: T2, adenosine 3 receptor (Homo sapiens, UniProt P0DMS8); assay: Agonist activity against adenosine 3 receptor (CHO cells, forskolin-enhanced cAMP/SPAP reporter); type: cell-based; conditions: CHO cells transfected with human receptor; forskolin-enhanced cAMP via SPAP; mean of all the versions tested
T2 sequence (P0DMS8 1-318): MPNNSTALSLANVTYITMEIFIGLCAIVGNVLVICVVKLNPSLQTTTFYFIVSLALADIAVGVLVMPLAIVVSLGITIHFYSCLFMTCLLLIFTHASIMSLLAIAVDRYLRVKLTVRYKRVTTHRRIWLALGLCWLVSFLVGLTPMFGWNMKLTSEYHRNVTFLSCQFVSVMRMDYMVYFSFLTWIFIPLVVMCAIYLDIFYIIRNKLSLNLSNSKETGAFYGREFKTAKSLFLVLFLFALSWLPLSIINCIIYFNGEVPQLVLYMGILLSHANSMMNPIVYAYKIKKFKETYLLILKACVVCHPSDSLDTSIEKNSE
Procedure: as §1, §2

Row | Compound | ED50 (50% reduction in eosinophil accumulation) [1] [ng/mL] | A2a EC50 as a ratio of that of NECA [2] | A1 EC50 as a ratio of that of NECA [3] | A3 EC50 as a ratio of that of NECA [4]
1 | CCn1nnc([C@H]2O[C@@H](n3cnc4c(NCC(c5ccccc5)c5ccccc5)nc(N[C@H]5CC[C@H](N)CC5)nc43)[C@H](O)[C@@H]2O)n1.Cl.Cl (relative stereo) [Example 1a, rel-(2R,3R,4S,5R)-2-[2-(trans-4-Amino-cyclohexylamino)-6-(2,2-diphenyl-ethylamino)-purin-9-yl]-5-(2-ethyl-2H-tetrazol-5-yl)-tetrahydro-furan-3,4-diol Dihydrochloride] | 6 | – | – | –
2 | CCn1nnc([C@H]2O[C@@H](n3cnc4c(N)nc(N[C@H](CO)Cc5ccccc5)nc43)[C@H](O)[C@@H]2O)n1.Cl [Example 11a, (2R,3R,4S,5R)-2-[6-Amino-2-(1S-hydroxymethyl-2-phenyl-ethylamino)-purin-9-yl]-5-(2-ethyl-2H-tetrazol-5-yl)-tetrahydro-furan-3,4-diol Hydrochloride] | 6 | – | – | –
3 | CC(=O)O.CCn1nnc([C@H]2O[C@@H](n3cnc4c(NCCC(C)(C)C)nc(NCCNc5ccccn5)nc43)[C@H](O)[C@@H]2O)n1 [Example 51, (2R,3R,4S,5R)-2-{6-(3,3-Dimethyl-butylamino)-2-[2-(pyridin-2-ylamino)-ethylamino]-purin-9-yl}-5-(2-ethyl-2H-tetrazol-5-yl)-tetrahydro-furan-3,4-diol Acetate] | – | 1.46 | 144.00 | >42
4 | CCn1nnc(C2OC(n3cnc4c(NCCC5CCCCC5)nc(NC5CCNC5)nc43)C(O)C2O)n1 [Example 72, (2R,3R,4S,5R)-2-[6-(2-Cyclohexyl-ethylamino)-2-(pyrrolidin-3R-ylamino)-purin-9-yl]-5-(2-ethyl-2H-tetrazol-5-yl)-tetrahydro-furan-3,4-diol Diformate] | – | 6.48 | 848.50 | >158
5 | (2R,3R,4S,5R)-2-[6-(1-Ethyl-propylamino)-2-(2-piperidin-1-yl-ethylamino)-purin-9-yl]-5-(2-methyl-2H-tetrazol-5-yl)-tetrahydro-furan-3,4-diol Diformate [Example 24] | – | 0.36 | >4798 | >157
6 | CCn1nnc(C2OC(n3cnc4c(NCC(c5ccccc5)c5ccccc5)nc(NC5CCNC5)nc43)C(O)C2O)n1 [Example 84, (2R,3R,4S,5R)-2-[6-(2,2-Diphenyl-ethylamino)-2-(pyrrolidin-3S-ylamino)-purin-9-yl]-5-(2-ethyl-2H-tetrazol-5-yl)-tetrahydro-furan-3,4-diol bis(Trifluoroacetate)] | – | 2.50 | 490.80 | >103
7 | Cn1nnc(C2OC(n3cnc4c(NCC(c5ccccc5)c5ccccc5)nc(NCCN5CCOCC5)nc43)C(O)C2O)n1.O=CO.O=CO (centres unmarked) [Example 98] | – | 2.28 | 126.50 | >160
8 | CCn1nnc(C2OC(n3cnc4c(NCCc5ccccc5)nc(NCCN5CCCCC5)nc43)C(O)C2O)n1.O=CO.O=CO [Example 102, (2R,3S,4R,5R)-2-(2-Ethyl-2H-tetrazol-5-yl)-5-[6-phenethylamino-2-(2-piperidin-1-yl-ethylamino)-purin-9-yl]-tetrahydro-furan-3,4-diol Diformate] | – | 6.36 | 321.00 | >195
9 | CCn1nnc([C@H]2O[C@@H](n3cnc4c(N)nc(NCCc5ccc(N)cc5)nc43)[C@H](O)[C@@H]2O)n1.O=CO [Example 14, (2R,3R,4S,5R)-2-{6-Amino-2-[2-(4-amino-phenyl)-ethylamino]-purin-9-yl}-5-(2-ethyl-2H-tetrazol-5-yl)-tetrahydro-furan-3,4-diol Formate] | – | 0.55 | 181.1 | >209
10 | CCn1nnc(C2OC(n3cnc4c(NCCN5CCOCC5)nc(NC(CO)Cc5ccccc5)nc43)C(O)C2O)n1 [Example 85, (2R,3S,4R,5R)-2-(2-Ethyl-2H-tetrazol-5-yl)-5-[2-(1S-hydroxymethyl-2-phenyl-ethylamino)-6-(2-morpholin-4-yl-ethylamino)-purin-9-yl]-tetrahydro-furan-3,4-diol Formate] | – | 6.11 | 192.90 | >179
11 | Cn1cnc(CCNc2nc(NCCc3ccccc3)c3ncn([C@@H]4O[C@H](c5nnn(C)n5)[C@@H](O)[C@H]4O)c3n2)c1.O=CO [Example 34, (2R,3R,4S,5R)-2-{2-[2-(1-Methyl-1H-imidazol-4-yl)-ethylamino]-6-phenethylamino-purin-9-yl}-5-(2-methyl-2H-tetrazol-5-yl)-tetrahydro-furan-3,4-diol Formate] | – | 0.13 | 1316 | >173
12 | Cn1nnc(C2OC(n3cnc4c(NCC(c5ccccc5)c5ccccc5)nc(NC5CCNC5)nc43)C(O)C2O)n1 [Example 94, (2R,3R,4S,5R)-2-[6-(2,2-Diphenyl-ethylamino)-2-(pyrrolidin-3R-ylamino)-purin-9-yl]-5-(2-methyl-2H-tetrazol-5-yl)-tetrahydro-furan-3,4-diol Diformate] | – | 2.39 | 385.90 | >411
13 | CCn1nnc(C2OC(n3cnc4c(NC(CO)Cc5ccccc5)nc(NC5CCNC5)nc43)C(O)C2O)n1 [Example 62, (2R,3S,4R,5R)-2-(2-Ethyl-2H-tetrazol-5-yl)-5-[6-(1S-hydroxymethyl-2-phenyl-ethylamino)-2-(pyrrolidin-3R-ylamino)-purin-9-yl]-tetrahydro-furan-3,4-diol bis(Formate)] | – | 2.29 | 21.10 | >295
14 | (2R,3R,4S,5R)-2-[2-(1-Benzyl-pyrrolidin-3-ylamino)-6-cyclopentylamino-purin-9-yl]-5-(2-ethyl-2H-tetrazol-5-yl)-tetrahydro-furan-3,4-diol bis(Formate) [Example 66] | – | 1.53 | 48.60 | >158
15 | CCn1nnc([C@H]2O[C@@H](n3cnc4c(NCc5cccc(I)c5)nc(NCCN5CCOCC5)nc43)[C@H](O)[C@@H]2O)n1 [Example 48, (2R,3S,4R,5R)-2-(2-Ethyl-2H-tetrazol-5-yl)-5-[6-(3-iodo-benzylamino)-2-(2-morpholin-4-yl-ethylamino)-purin-9-yl]-tetrahydro-furan-3,4-diol] | – | 4.12 | 102.00 | >181
